# Experimental data as given in PubChem BioAssay (NCI).
#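 Briefly, cells in 96-well plates were exposed to five compound concentrations for 48 h, and endpoints were estimated by linear interpolation. Here, GI50 denotes the concentration required for 50% inhibition of growth. The concentration for full growth arrest is given as TGI.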
# Columns and labels:
# Assay in all cases: growth of human tumour cells (NCI), 48 h
# BT-549 breast = test system: BT-549 breast
# HS 578T breast = test system: HS 578T breast
# MDA-N = test system: MDA-N
# NCI/ADR-RES ovarian = test system: NCI/ADR-RES ovarian
# MDA-MB-435 = test system: MDA-MB-435
# DLD-1 colon = test system: DLD-1 colon
# DMS 114 small cell lung = test system: DMS 114 small cell lung
# XF 498 CNS = test system: XF 498 CNS
SMILES,TGI (BT-549 breast),TGI (HS 578T breast),TGI (MDA-N),TGI (NCI/ADR-RES ovarian),GI50 (BT-549 breast),GI50 (HS 578T breast),GI50 (NCI/ADR-RES ovarian),GI50 (MDA-MB-435),TGI (MDA-MB-435),TGI (DLD-1 colon),TGI (DMS 114 small cell lung),TGI (XF 498 CNS)
Nc1nc(=O)c2[nH]cnc2n1O,> 100 µM,> 100 µM,> 100 µM,> 100 µM,,,,,,,,
COc1ccc(-c2c(-c3cc4c(c(OC)c3OC)OCO4)noc2N)cc1,17 µM,> 100 µM,,0.741 µM,0.507 µM,0.365 µM,0.131 µM,,,,,
COc1ccccc1CN=C1NC(=O)/C(=C/c2ccc3ncccc3c2)S1,14 µM,> 24.1 µM,,> 25 µM,5.18 µM,6.61 µM,11.2 µM,6.02 µM,> 21.3 µM,,,
Oc1ccccc1/C=N/Nc1nc2ccccc2s1,> 100 µM,58 µM,,> 100 µM,> 100 µM,8.84 µM,6.1 µM,> 100 µM,> 100 µM,,,
O=C(NCCN1CCOCC1)Nc1nc2ccc(Sc3nnc4ccc(-c5ccc(F)cc5)nn34)cc2s1,> 27.8 µM,,,> 100 µM,2.62 µM,,> 100 µM,,> 100 µM,,,
O=C1c2cccc3c([N+](=O)[O-])ccc(c23)C(=O)N1CCCCl,> 10 µM,> 10 µM,,> 10 µM,4.82 µM,4.6 µM,8.42 µM,> 10 µM,> 10 µM,,,
COc1ccc(NC(=O)COc2ccccc2)c(C(N)=O)c1,> 100 µM,97.1 µM,,11.9 µM,0.621 µM,0.871 µM,0.574 µM,0.156 µM,0.845 µM,,,
C=C(c1ccccc1)[C@@]1(O)CCCC[C@H]1NC(c1ccccc1)c1ccccc1,,,,,,,,,,31.9 µM,22.3 µM,
Cc1cc(NCCCNc2ccnc3cc(Cl)ccc23)nc(Nc2ccc(C(=O)N3CCCCC3)cc2)n1,5.43 µM,6.38 µM,,35.9 µM,2.31 µM,2.68 µM,14.9 µM,1.71 µM,3.2 µM,,,
COc1cc(-c2nn(-c3ccc(NC(=O)Nc4ccc(Cl)c(C(F)(F)F)c4)cc3)cc2-c2ccncc2)ccc1Cl,4.57 µM,4.96 µM,,7.85 µM,2.01 µM,1.91 µM,2.12 µM,1.6 µM,3.54 µM,,,
CC(=O)CC(=O)ON(C)C(C)=O,,,,,,,,,,> 100 µM,> 100 µM,> 100 µM
CC1=CC[C@@H]2[C@@H](CC[C@@]2(C)O)C(C)(C)[C@H]1CC[C@@H]1[C@@]2(C)CC[C@@H](O)C(C)(C)O[C@@H]2CC[C@]1(C)O,44 µM,,53.2 µM,,,,,,57 µM,,,
O=C(/C=C/c1ccccc1)Nc1ncc(Cc2ccccc2)s1,> 100 µM,20.8 µM,,5.5 µM,1.17 µM,0.287 µM,0.178 µM,0.0286 µM,0.1 µM,,,
COc1cc(/C=C/C(=O)c2ccc(F)cc2)ccc1OCCCCOc1cc2c(cc1OC)C(=O)N1CCCC1C=N2 (configuration not stated),,9.36 µM,,> 26.4 µM,0.855 µM,0.336 µM,0.936 µM,2.71 µM,8.01 µM,,,
COC1=CC(=O)c2c(O)c3c(c(O)c2C1=O)OC1(Oc2c(cc4cc(C)oc(=O)c4c2O)CC1O)C3O (configuration not stated),,> 100 µM,42.9 µM,> 100 µM,,,,,> 100 µM,,,
O=c1ncc(I)c[nH]1,> 100 µM,> 100 µM,,> 100 µM,> 100 µM,> 100 µM,> 100 µM,> 100 µM,> 100 µM,,,
CCOc1ccc(NC(=O)/C(Cc2nc3ccccc3[nH]c2=O)=N\O)cc1,,,,,,,,,,> 100 µM,> 100 µM,
O=S1(=O)OCc2ccccc21,> 100 µM,> 100 µM,> 100 µM,> 100 µM,,,,,> 100 µM,,,
CC(C)(C)n1nc(C2CC2)cc1NC(=O)Nc1ccc(Cl)cc1,> 100 µM,> 100 µM,,> 100 µM,,,,,> 100 µM,,,
C/C(=N\NC(=O)c1cccc(S(=O)(=O)N2CCN(C)CC2)c1)c1cc(Cl)ccc1O,36 µM,> 74.8 µM,,14.9 µM,1.94 µM,4.54 µM,1.33 µM,2.74 µM,> 100 µM,,,
NNC(=O)C(O)C(O)C(O)CO (configuration not stated),> 100 µM,> 100 µM,> 100 µM,> 100 µM,,,,,> 100 µM,,,
O=c1[nH]ccc2nc(N3CCC(O)CC3)nc(Nc3ccc(N4CCOCC4)cc3)c12,> 46.5 µM,9.03 µM,,> 100 µM,2.31 µM,2.01 µM,> 100 µM,0.744 µM,> 100 µM,,,
COc1ccc(C2CC(c3ccc4ccccc4c3)=NN2/C=C2\SC(=S)N(NC(=O)Cc3ccccc3Nc3c(Cl)cccc3Cl)C2=O)cc1 (configuration not stated),> 43 µM,> 37.6 µM,,> 34.5 µM,0.681 µM,0.415 µM,0.421 µM,0.221 µM,0.547 µM,,,
O=C(CC(O)c1cccnc1)CC(O)c1cccnc1 (configuration not stated),25.6 µM,> 100 µM,25.5 µM,> 66.1 µM,,,,,55.3 µM,,,
OCCNC(=S)Nc1ccc(-c2nc(N3C[C@H]4CC[C@@H](C3)O4)c3cccn3n2)cc1,0.507 µM,0.248 µM,,2.16 µM,0.021 µM,0.0221 µM,0.172 µM,0.0597 µM,2.86 µM,,,
Cc1ccccc1NC(=O)N/C(N)=N/c1nc(C)c(C)s1,> 100 µM,> 100 µM,,15.8 µM,1.14 µM,0.488 µM,0.089 µM,0.0332 µM,0.468 µM,,,
CN(C)c1ccc(/C=N/NC(=O)CSc2nc3sc4c(c3c(=O)n2-c2ccccc2)CCCCC4)cc1,> 100 µM,40.5 µM,,> 100 µM,16.1 µM,3.85 µM,7.85 µM,5.07 µM,> 100 µM,,,
